#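 Method: 48-hour compound exposure of cells in 96-well plates, five concentrations, linear interpolation of endpoints. Definition used: TGI = concentration required for complete inhibition of growth.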
# Legend:
# Assay in all cases: DTP human tumour cell line panel, 48 h
# UACC-62 melanoma = tested on: UACC-62 melanoma
# HCT-116 colon = tested on: HCT-116 colon
# A549 NSCLC = tested on: A549 NSCLC
# NCI-H522 lung = tested on: NCI-H522 lung
# MDA-MB-435 = tested on: MDA-MB-435
# LOX IMVI melanoma = tested on: LOX IMVI melanoma
# OVCAR-4 ovarian = tested on: OVCAR-4 ovarian
# EKVX NSCLC = tested on: EKVX NSCLC
# MDA-N = tested on: MDA-N
# M14 melanoma = tested on: M14 melanoma
# SK-MEL-28 melanoma = tested on: SK-MEL-28 melanoma
# HOP-92 NSCLC = tested on: HOP-92 NSCLC
SMILES,TGI (UACC-62 melanoma),TGI (HCT-116 colon),TGI (A549 NSCLC),TGI (NCI-H522 lung),TGI (MDA-MB-435),TGI (LOX IMVI melanoma),TGI (OVCAR-4 ovarian),TGI (EKVX NSCLC),TGI (MDA-N),TGI (M14 melanoma),TGI (SK-MEL-28 melanoma),TGI (HOP-92 NSCLC)
Nc1c(Cl)ncnc1N[C@@H]1C[C@H]1CO,> 100 µM,> 100 µM,> 100 µM,> 100 µM,> 100 µM,> 100 µM,> 100 µM,> 100 µM,> 100 µM,> 100 µM,> 100 µM,> 100 µM
O=c1[nH]/c(=C/c2ccc(OCc3ccccc3)cn2)c(=O)[nH]/c1=C/c1ccc(O)cc1,> 100 µM,> 69.6 µM,> 53.5 µM,0.806 µM,1.64 µM,1.26 µM,0.59 µM,> 89.1 µM,0.591 µM,3.78 µM,> 100 µM,> 77.6 µM
COc1ccc(Nc2nc(NS(=O)(=O)c3cc(C)c(Cl)cc3S)n[nH]2)cc1,> 100 µM,> 100 µM,> 100 µM,> 100 µM,> 100 µM,> 100 µM,> 100 µM,> 100 µM,> 100 µM,> 100 µM,> 100 µM,> 100 µM
CC1=NN(c2ccc(S(=O)(=O)O)cc2)C2(C1)SCC(=O)N2c1nc2ccccc2s1 (centres undefined),> 100 µM,> 100 µM,> 100 µM,> 100 µM,> 100 µM,> 100 µM,> 100 µM,> 100 µM,> 100 µM,> 100 µM,> 100 µM,> 100 µM
CCOC(=O)/C=C(/C(=O)OCC)n1ccc(N)nc1=O,> 100 µM,> 100 µM,> 100 µM,54.8 µM,> 100 µM,> 100 µM,> 100 µM,> 100 µM,> 100 µM,> 100 µM,> 100 µM,> 100 µM
N#C/C(=C\n1ccc(=O)[nH]c1=S)C(N)=O,> 100 µM,> 100 µM,> 100 µM,> 100 µM,> 100 µM,> 100 µM,> 100 µM,> 100 µM,> 100 µM,> 100 µM,> 100 µM,> 100 µM
O=c1oc2ccccc2c(Nc2ccc3c(c2)Oc2ccccc2O3)c1[N+](=O)[O-],37.1 µM,> 100 µM,> 100 µM,65.5 µM,> 100 µM,> 100 µM,67 µM,67.6 µM,> 100 µM,> 100 µM,50 µM,35.2 µM
